Test [1] deals with TC-71 (Ewing's sarcoma) cells. The test is described as follows: cells. Conditions: Homo sapiens, TC-71, 72 h, read-out: EC50 on TC-71 cells. The method, then: Cell Proliferation Assays
Published scientific data has described that interference with the Insulin-like Growth Factor-1 Receptor (IGF-1R) signaling pathway reduces the proliferation of TC-71 cells. Therefore TC-71 cells served as a positive control cell line for monitoring the activity of compounds against IGF-1R-mediated cell proliferation.
2000 TC-71 cells or 1000 HCT 116 cells were seeded per well in 180 μL IMDM+10% foetal calf serum (FCS)+penicillin/streptomycin into 96-well microtitre plates. The plates were placed in a cell culture incubator (37° C. in a humidified atmosphere of 95% […]/5 CO2) overnight. The following day, serial dilutions of compounds, prepared in duplicates, were transferred onto the cell layers (controls without compound). The cells were cultivated for a further 72 h in the cell culture incubator. 20 μL of Alamar Bluet™ (Serotec Ltd, Düsseldorf, Germany) was added to each well and the plates incubated for 7 h in the cell culture incubator.

Test [2] concerns the target cytoplasmic kinase domain of human IGF-1R (IGF-1R-GST) (Homo sapiens (Human), UniProt P08069). The test is described as follows: Insulin-like growth factor-1 receptor (IGF-1R)-kinase assay (DELFIA). Conditions: inhibition of IGF-1R-kinase activity, read-out: IGF1R IC50. Type of test: biochemical. The method, then: Insulin-Like Growth Factor-1 Receptor (IGF-1R)-Kinase Assay
The kinase activity is measured by DELFIA® assay (dissociation-enhanced lanthanide fluorescence immunoassay, Perkin Elmer). […] Enzyme activity is measured in the presence of substances and a control substance. Poly-glutamate-tyrosine peptide (pEY, Sigma Aldrich) and biotinylated pEY (bio-pEY) are used as reaction substrates.
After 40 min at RT the reactions are stopped with 50 μL of stop solution (250 mM EDTA, 20 mM HEPES pH 7.4). 90 μL from each reaction are transferred onto streptavidin-coated 96-well plates. After 120 min incubation at RT the plates are washed three times with 200 μL phosphate-buffered saline (PBS) per well. The plates are incubated for 60 min with 100 μL of europium-coupled antibody against phospho-tyrosine (diluted 1/2000 in Perkin Elmer DELFIA assay buffer) per well. The plates are washed three times with 200 μL per well of DELFIA washing buffer. 100 μL DELFIA Enhancement Solution (Perkin Elmer) is added to each well, and the plates are incubated for 10 min. The fluorescence signal is measured with a Wallac Victor TRF Reader. IC50 values for the inhibition of the IGF-1R-kinase activity are calculated using the programmes Fifty (Version 2) and GraphPad (Version 3.0).

Results on 24 compounds are retold here after US8735386B2, “Aminopyrazoloquinazolines” (Boehringer Ingelheim International GmbH, priority 2010, dated 2014).

Sequence of cytoplasmic kinase domain of human IGF-1R (IGF-1R-GST) (P08069 964-1367 limits assumed): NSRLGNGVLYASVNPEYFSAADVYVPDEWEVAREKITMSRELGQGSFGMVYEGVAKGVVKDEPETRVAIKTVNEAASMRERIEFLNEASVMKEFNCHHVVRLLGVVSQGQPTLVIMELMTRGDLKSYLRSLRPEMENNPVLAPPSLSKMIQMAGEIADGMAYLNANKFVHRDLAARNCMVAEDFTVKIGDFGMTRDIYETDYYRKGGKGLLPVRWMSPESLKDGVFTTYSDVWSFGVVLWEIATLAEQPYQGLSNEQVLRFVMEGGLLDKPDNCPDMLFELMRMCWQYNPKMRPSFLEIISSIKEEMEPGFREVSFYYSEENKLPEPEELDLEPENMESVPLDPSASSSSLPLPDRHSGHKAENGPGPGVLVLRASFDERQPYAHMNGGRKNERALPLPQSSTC

One may read the EC50 as the concentration that produces a half-maximal response. Consider `CC1Cc2nn(C)c(-c3ccccc3Cl)c2-c2nc(Nc3ccn(C(C)C)n3)ncc21` (racemic) [Compound I-40, 9-(2-chlorophenyl)-5,8-dimethyl-N-(1-propane-2-ylpyrazol-3-yl)-5,6-dihydropyrazolo[3,4-h]quinazolin-2-amine], for which, in test [1], the half-maximal effective concentration (EC50) was < 3000 nM. In the case of `CC1Cc2nn(C)c(-c3ccccc3Cl)c2-c2nc(Nc3ccn(C)n3)ncc21` (racemic) [Compound I-42, 9-(2-chlorophenyl)-5,8-dimethyl-N-(1-methylpyrazol-3-yl)-5,6-dihydropyrazolo[3,4-h]quinazolin-2-amine], the EC50 in test [1] is < 3000 nM.

As for `COc1cc(N2CCN(C)CC2)ccc1Nc1ncc2c(n1)-c1c(nn(C)c1-c1ccccc1Cl)CC2C` (racemic) [Compound I-97, 9-(2-chlorophenyl)-N-[2-methoxy-4-(4-methylpiperazin-1-yl)phenyl]-5,8-dimethyl-5,6-dihydropyrazolo[3,4-h]quinazolin-2-amine], the EC50 in test [1] was < 3000 nM. The same measure, in the same setting: under `COc1cc(C(=O)NC2CCN(C)CC2)ccc1Nc1ncc2c(n1)-c1c(nn(C)c1-c1ccccc1Cl)CC2C` (racemic) [Compound I-157, 4-[[9-(2-chlorophenyl)-5,8-dimethyl-5,6-dihydropyrazolo[3,4-h]quinazolin-2-yl]amino]-3-methoxy-N-(1-methylpiperidin-4-yl)benzamide] stands < 3000 nM; under `CC1Cc2nn(C)c(Cc3ccccc3Cl)c2-c2nc(Nc3cnn(C4CCNCC4)c3)ncc21` (racemic) [IV-2a], < 3000 nM; under `COC(=O)c1ccc(Nc2ncc3c(n2)-c2c(nn(C)c2-c2ccccc2Cl)CC3)c(OC)c1` [Compound I-3], < 3000 nM.

Regarding `Cn1nccc1Nc1ncc2c(n1)-c1c(nn(C)c1-c1ccccc1Cl)CC2` [Compound I-23], the EC50 in test [1] was < 3000 nM. Turning to `CCn1ccc(Nc2ncc3c(n2)-c2c(nn(C)c2-c2ccccc2Cl)CC3)n1` [Compound I-30, 9-(2-chlorophenyl)-N-(1-ethylpyrazol-3-yl)-8-methyl-5,6-dihydropyrazolo[3,4-h]quinazolin-2-amine], the EC50 in test [1] was < 3000 nM. As to `Cc1cc(Nc2ncc3c(n2)-c2c(nn(C)c2-c2ccccc2Cl)CC3)nn1C` [Compound I-109], the EC50 in test [1] is < 3000 nM.

On to `COc1cc(C(=O)NC2CCN(C)CC2)ccc1Nc1ncc2c(n1)-c1c(nn(C)c1-c1ccccc1Cl)CC2` [Compound I-112, 4-[[9-(2-chlorophenyl)-8-methyl-5,6-dihydropyrazolo[3,4-h]quinazolin-2-yl]amino]-3-methoxy-N-(1-methylpiperidin-4-yl)benzamide], for which, in test [1], the EC50 is < 3000 nM. For the compound `Cc1cccc(-c2c3c(nn2C)CCc2cnc(Nc4ccccc4)nc2-3)c1Cl` [Compound I-147], the EC50 in test [1] is < 3000 nM. Turning to `COCCn1ccc(Nc2ncc3c(n2)-c2c(nn(C)c2-c2ccc(Cl)cc2)CC3)n1` [Compound I-171, 9-(4-chlorophenyl)-N-[1-(2-methoxyethyl)pyrazol-3-yl]-8-methyl-5,6-dihydropyrazolo[3,4-h]quinazolin-2-amine], the EC50 in test [1] was < 3000 nM. On to `CCn1ccc(Nc2ncc3c(n2)-c2c(nn(C)c2-c2sccc2C)CC3)n1` [Compound I-172], for which the EC50 in test [1] was < 3000 nM. As to `Cc1ccsc1-c1c2c(nn1C)CCc1cnc(Nc3ccn(CCN(C)C)n3)nc1-2` [Compound I-189, N-[1-(2-dimethylaminoethyl)pyrazol-3-yl]-8-methyl-9-(3-methylthiophen-2-yl)-5,6-dihydropyrazolo[3,4-h]quinazolin-2-amine], the EC50 in test [1] is < 3000 nM.

Regarding `CCn1ccc(Nc2ncc3c(n2)-c2c(nn(C)c2-c2cccc(OC)c2)CC3)n1` [Compound I-293], the EC50 in test [1] was < 3000 nM. On the same count and under the same terms, under `Cc1cc(Nc2ncc3c(n2)-c2c(nn(C)c2-c2ccc(OC(F)F)cc2)CC3)nn1C` [Compound I-294] stands < 3000 nM; under `COc1cc(C(=O)O)ccc1Nc1ncc2c(n1)-c1c(nn(C)c1-c1ccccc1Cl)CC2` [II-18], < 3000 nM. In general, IC50 refers to the concentration that gives 50% inhibition. For `CCOc1cc(C(=O)NC)ccc1Nc1ncc2c(n1)-c1c(nn(C)c1-c1ccccc1)CC2` [III-3], in test [2], the IC50 was determined as 92 nM.

For `COc1cc(C(=O)NC2CC(N3CCN(C)CC3)C2)ccc1Nc1ncc2c(n1)-c1c(nn(C)c1-c1ccccc1Cl)CC2` (stereo not drawn) [III-38], the EC50 in test [1] was < 3000 nM. Turning to `COc1cc(C(=O)NC2CCN(C)CC2)ccc1Nc1ncc2c(n1)-c1c(nn(C)c1-c1sccc1C)CC2` [III-105], the concentration giving a half-maximal response (EC50) in test [1] is < 3000 nM. Take `COc1cc(C(=O)NC2CCN(C)CC2)ccc1Nc1ncc2c(n1)-c1c(nn(C)c1Cc1c(Cl)cccc1Cl)CC2` [III-107]: in test [1], the EC50 is < 3000 nM.

Regarding `CC1Cc2nn(C)c(Cc3ccccc3Cl)c2-c2nc(Nc3cnn(C4CCN(C5CCOCC5)CC4)c3)ncc21` (stereo not drawn) [IV-9a], in test [1], the EC50 was < 3000 nM. On the same count and under the same terms, under `CC(=O)N1CCC(N2CCC(n3cc(Nc4ncc5c(n4)-c4c(nn(C)c4Cc4ccccc4Cl)CC5C)cn3)CC2)CC1` (stereo not drawn) [IV-9b] stands < 3000 nM.

Consider `CC1Cc2nn(C)c(Cc3ccccc3Cl)c2-c2nc(Nc3cnn(C4CCN(CCO)CC4)c3)ncc21` (stereo not drawn) [IV-9c], for which, in test [1], the EC50 is < 3000 nM.
